Measurements as given in patent US6933304B2, “Heteroarylalkanoic acids as integrin receptor antagonists” (Pharmacia Corporation, priority 2000, dated 2005).

Experiments:
[1] = target: T1, αVβ3 integrin (293-β3 cells) (Homo sapiens, UniProt P05106+P06756); test: 293-β3 cell adhesion assay (adhesion to immobilized vitronectin); type: cell-based; conditions: 200 uM Mn2+, read-out: 293-β3 (IC50 <10 μM)
T1 construct: expressed in transfected cells; host or cells: 293 human embryonic kidney cells (293-β3)
T1 sequence (P06756 31-889 limits assumed): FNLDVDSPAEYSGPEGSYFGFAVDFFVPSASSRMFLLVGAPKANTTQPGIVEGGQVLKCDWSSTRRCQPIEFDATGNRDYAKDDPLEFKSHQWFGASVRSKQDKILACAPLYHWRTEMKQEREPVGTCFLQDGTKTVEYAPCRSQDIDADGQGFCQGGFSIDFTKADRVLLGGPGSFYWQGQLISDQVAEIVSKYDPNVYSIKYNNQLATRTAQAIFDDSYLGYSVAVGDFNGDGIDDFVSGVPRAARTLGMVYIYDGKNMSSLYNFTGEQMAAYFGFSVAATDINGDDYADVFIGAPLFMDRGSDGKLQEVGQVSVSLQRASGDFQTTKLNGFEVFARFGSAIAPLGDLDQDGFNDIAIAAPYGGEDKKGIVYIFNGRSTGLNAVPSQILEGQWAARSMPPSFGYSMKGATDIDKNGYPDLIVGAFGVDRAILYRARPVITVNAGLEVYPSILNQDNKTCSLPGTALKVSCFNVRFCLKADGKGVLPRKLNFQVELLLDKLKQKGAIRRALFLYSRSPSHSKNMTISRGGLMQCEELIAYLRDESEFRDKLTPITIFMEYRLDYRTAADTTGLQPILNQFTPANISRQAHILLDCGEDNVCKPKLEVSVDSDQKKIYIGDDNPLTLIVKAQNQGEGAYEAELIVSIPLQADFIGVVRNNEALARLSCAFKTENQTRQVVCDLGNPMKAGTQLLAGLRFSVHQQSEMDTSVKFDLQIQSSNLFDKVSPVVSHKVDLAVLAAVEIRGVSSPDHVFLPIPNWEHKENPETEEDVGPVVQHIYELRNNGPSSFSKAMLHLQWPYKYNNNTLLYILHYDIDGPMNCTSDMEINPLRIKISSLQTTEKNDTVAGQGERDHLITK
T1 sequence (P06756 891-1048 partner limits assumed): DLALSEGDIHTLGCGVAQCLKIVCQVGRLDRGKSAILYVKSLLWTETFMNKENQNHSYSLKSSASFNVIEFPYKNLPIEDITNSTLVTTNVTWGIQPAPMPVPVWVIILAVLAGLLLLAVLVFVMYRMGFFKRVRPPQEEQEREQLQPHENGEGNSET
T1 sequence (P05106 27-788): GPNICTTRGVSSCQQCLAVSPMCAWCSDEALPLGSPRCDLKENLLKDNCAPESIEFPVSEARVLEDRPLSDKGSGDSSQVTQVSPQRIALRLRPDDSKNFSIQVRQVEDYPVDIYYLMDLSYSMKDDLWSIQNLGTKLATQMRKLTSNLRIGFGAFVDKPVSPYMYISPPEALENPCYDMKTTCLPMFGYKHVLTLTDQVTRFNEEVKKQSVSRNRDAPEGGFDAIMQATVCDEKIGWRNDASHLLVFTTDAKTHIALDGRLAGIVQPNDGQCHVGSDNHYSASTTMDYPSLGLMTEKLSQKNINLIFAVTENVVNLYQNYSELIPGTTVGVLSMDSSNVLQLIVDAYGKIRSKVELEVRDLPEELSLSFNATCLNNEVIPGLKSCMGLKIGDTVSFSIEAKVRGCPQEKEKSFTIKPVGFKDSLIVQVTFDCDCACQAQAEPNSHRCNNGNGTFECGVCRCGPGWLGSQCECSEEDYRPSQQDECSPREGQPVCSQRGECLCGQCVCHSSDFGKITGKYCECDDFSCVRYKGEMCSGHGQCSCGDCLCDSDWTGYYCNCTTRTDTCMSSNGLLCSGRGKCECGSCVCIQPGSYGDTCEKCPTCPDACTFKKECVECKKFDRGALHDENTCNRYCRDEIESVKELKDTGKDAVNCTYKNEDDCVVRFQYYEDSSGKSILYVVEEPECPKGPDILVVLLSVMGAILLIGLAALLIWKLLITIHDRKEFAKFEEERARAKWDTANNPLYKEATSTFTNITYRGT
Source text: While the β3 subunit of αVβ3 is only known to complex with αV or αIIb, the αV subunit complexes with multiple β subunits. The three αV integrins most homologous with αVβ3 are αVβ1, αVβ5 and αVβ6, with 43%, 56% and 47% amino acid identity in the β subunits, respectively. To evaluate the selectivity of compounds between the integrins αVβ3 and αVβ6, cell-based assays were established using the 293 human embryonic kidney cell line. 293 cells express αVβ1, but little to no detectable αVβ3 or αVβ6. cDNAs for β3 and β6 were transfected separately into 293 cells to generate 293-β3 and 293-β6 cells, respectively. High surface expression of αVβ3 and αVβ6 was confirmed by flow cytometry. Conditions were established for each cell line in which cell adhesion to immobilized human vitronectin was mediated by the appropriate integrin, as determined by a panel of integrin-specific, neutralizing monoclonal antibodies. Briefly, cells were incubated with inhibitor in the presence of 200 uM Mn^2+, allowed to adhere to immobilized vitronectin, washed, and adherent cells are detected endogenous alkaline phosphatase and para-nitrophenyl phosphate. An 8-point dose-response curve using either 10-fold or 3-fold dilutions of compound was evaluated by fitting a four-parameter logistic, nonlinear model (using SAS).

[2] = target: T2, αVβ6 (HT-29 human colon carcinoma cells) (Homo sapiens, UniProt P06756+P18564); test: HT-29 cell adhesion assay (adhesion to immobilized LAP); type: cell-based; conditions: selectivity ratio: IC50 αVβ6 (HT-29) over IC50 β3
T2 construct: endogenous in cells; host or cells: HT-29 human colon carcinoma cells
T2 sequence (P06756 31-889 limits assumed): as the sequence (P06756 31-889 limits assumed) above
T2 sequence (P06756 891-1048 partner limits assumed): as the sequence (P06756 891-1048 partner limits assumed) above
T2 sequence (P18564 22-788): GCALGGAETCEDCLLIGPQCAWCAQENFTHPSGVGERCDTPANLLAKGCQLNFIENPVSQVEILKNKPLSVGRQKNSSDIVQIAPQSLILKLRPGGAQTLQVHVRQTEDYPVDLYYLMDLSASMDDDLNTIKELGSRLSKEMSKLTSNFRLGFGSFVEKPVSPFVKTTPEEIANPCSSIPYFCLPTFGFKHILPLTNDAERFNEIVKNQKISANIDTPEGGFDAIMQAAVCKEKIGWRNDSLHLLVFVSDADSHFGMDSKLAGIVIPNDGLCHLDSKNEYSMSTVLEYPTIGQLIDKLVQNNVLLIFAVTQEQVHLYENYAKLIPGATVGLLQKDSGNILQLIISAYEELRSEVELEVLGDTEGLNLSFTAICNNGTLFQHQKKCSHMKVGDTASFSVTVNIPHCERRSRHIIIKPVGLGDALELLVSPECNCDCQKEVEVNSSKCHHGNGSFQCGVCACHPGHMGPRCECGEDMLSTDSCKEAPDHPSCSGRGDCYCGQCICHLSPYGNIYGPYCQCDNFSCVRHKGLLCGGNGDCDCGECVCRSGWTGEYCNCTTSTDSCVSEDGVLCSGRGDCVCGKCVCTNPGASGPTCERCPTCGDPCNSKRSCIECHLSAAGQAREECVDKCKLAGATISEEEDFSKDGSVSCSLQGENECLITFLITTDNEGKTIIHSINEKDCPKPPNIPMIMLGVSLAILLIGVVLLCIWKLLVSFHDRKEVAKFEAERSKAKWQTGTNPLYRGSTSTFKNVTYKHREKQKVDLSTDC
Protocol: To evaluate compound potency for membrane-bound αVβ6 an additional cell-based adhesion assay was established using the HT-29 human colon carcinoma cell line. High surface expression of αVβ6 on HT-29 cells was confirmed by flow cytometry. Conditions were established in which cell adhesion to immobilized human latency associated peptide (LAP) was mediated by the αVβ6, as determined by a panel of integrin-specific, neutralizing monoclonal antibodies. Briefly, cells were incubated with inhibitor in the presence of 200 uM Mn^2+, allowed to adhere to immobilized LAP, washed, and adherent cells are detected by quantifying endogenous alkaline phosphatase using para-nitrophenyl phosphate. An 8-point dose-response curve using either 10-fold or 3-fold dilutions of compound was evaluated by fitting a four-parameter logistic, nonlinear model (using SAS). The compounds evaluated were relatively ineffective at inhibition of αVβ6-mediated cell adhesion. The selective antagonism of the αVβ3 integrin is viewed as desirable in this class of compounds, as αVβ6 may also play a role in normal physiological processes of tissue repair and cellular turnover that routinely occur in the skin and pulmonary tissues.

[3] = target: T3, Human fibrinogen receptor (IIb/IIIa) (Homo sapiens, UniProt P05106+P08514); test: Purified IIb/IIIa receptor assay (solid phase receptor assay, SPRA); type: binding; conditions: selectivity ratio: IC50 αIIbβ3 (solid phase receptor assay) over IC50 β3
T3 construct: Human fibrinogen receptor (IIb/IIIa) was purified from outdated platelets; from tissue; host or cells: outdated human platelets
T3 sequence (P08514 32-887 limits assumed): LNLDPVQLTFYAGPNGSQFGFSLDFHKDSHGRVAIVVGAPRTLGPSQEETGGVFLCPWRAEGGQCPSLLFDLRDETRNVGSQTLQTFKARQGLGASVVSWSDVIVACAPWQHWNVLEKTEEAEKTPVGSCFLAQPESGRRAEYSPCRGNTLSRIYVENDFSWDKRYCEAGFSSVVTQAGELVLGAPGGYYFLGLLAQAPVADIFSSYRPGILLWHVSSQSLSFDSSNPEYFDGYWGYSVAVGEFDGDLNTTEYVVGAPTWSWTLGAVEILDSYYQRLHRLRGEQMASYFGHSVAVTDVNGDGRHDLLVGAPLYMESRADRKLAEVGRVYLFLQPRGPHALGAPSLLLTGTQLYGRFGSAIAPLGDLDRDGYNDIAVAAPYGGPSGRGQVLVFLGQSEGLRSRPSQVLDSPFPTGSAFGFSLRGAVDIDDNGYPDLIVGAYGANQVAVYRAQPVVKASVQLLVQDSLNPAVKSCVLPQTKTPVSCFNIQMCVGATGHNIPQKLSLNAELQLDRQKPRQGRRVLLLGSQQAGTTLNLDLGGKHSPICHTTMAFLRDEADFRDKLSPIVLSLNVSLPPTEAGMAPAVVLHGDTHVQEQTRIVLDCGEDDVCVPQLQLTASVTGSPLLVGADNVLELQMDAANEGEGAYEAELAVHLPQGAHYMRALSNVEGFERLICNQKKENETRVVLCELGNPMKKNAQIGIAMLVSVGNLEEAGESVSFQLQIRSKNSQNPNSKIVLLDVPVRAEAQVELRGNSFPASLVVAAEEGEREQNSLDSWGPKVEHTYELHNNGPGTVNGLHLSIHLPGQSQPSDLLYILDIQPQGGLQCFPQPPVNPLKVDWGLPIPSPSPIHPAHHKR
T3 sequence (P08514 891-1039 partner limits assumed): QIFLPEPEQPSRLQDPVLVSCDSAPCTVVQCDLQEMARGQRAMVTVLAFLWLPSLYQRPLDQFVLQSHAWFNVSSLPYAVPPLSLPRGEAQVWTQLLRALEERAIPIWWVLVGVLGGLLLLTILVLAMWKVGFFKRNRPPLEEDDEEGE
T3 sequence (P05106 27-788): as the sequence (P05106 27-788) above
Source text: Human fibrinogen receptor (IIb/IIIa) was purified from outdated platelets. (Pytela, R., Pierschbacher, M. D., Argraves, S., Suzuki, S., and Rouslahti, E. “Arginine-Glycine-Aspartic acid adhesion receptors”, Methods in Enzymology 144(1987):475-489.) Human vitronectin was purified from fresh frozen plasma as described in Yatohgo, T., Izumi, M., Kashiwagi, H., and Hayashi, M., “Novel purification of vitronectin from human plasma by heparin affinity chromatography,” Cell Structure and Function 13(1988):281-292. Biotinylated human vitronectin was prepared by coupling NHS-biotin from Pierce Chemical Company (Rockford, IL) to purified vitronectin as previously described. (Charo, I. F., Nannizzi, L., Phillips, D. R., Hsu, M. A., Scarborough, R. M., “Inhibition of fibrinogen binding to GP IIb/IIIa by a GP IIIa peptide”, J. Biol. Chem. 266(3)(1991): 1415-1421.) Assay buffer, OPD substrate tablets, and RIA grade BSA were obtained from Sigma (St. Louis, Mo.). Anti-biotin antibody was obtained from Sigma (St. Louis, Mo.). Nalge Nunc-Immuno microtiter plates were obtained from (Rochester, N.Y.). ADP reagent was obtained from Sigma (St. Louis, Mo.).
This assay is essentially the same reported in Niiya, K., Hodson, E., Bader, R., Byers-Ward, V. Koziol, J. A., Plow, E. F. and Ruggeri, Z. M., “Increased surface expression of the membrane glycoprotein IIb/IIIa complex induced by platelet activation: Relationships to the binding of fibrinogen and platelet aggregation”, Blood 70(1987):475-483. The purified human fibrinogen receptor (IIb/IIIa) was diluted from stock solutions to 1.0 μg/mL in Tris-buffered saline containing 1.0 mM Ca^++, Mg^++, and Mn^++, pH 7.4 (TBS^+++). The diluted receptor was immediately transferred to Nalge Nunc-Immuno microtiter plates at 100 μL/well (100 ng receptor/well). The plates were sealed and incubated overnight at 4° C. to allow the receptors to bind to the wells. All remaining steps were at room temperature. The assay plates were emptied and 200 μL of 1% RIA grade BSA in TBS^+++ (TBS^+++/BSA) were added to block exposed plastic surfaces. Following a 2 hour incubation, the assay plates were washed with TBS^+++ using a 96 well plate washer. Logarithmic serial dilution of the test compound and controls were made starting at a stock concentration of […] and using 2 nM biotinylated vitronectin in TBS^+++/BSA as the diluent. This premixing of labeled ligand with test (or control) ligand, and subsequent transfer of 50 μL aliquots to the assay plate was carried out with a CETUS Propette robot; the final concentration of the labeled ligand was 1 nM and the highest concentration of test compound was 1.0×10^−4 M. The competition occurred for two hours after which all wells were washed with a plate washer as before. Affinity purified horseradish peroxidase labeled goat anti-biotin antibody was diluted 1:2000 in TBS^+++/BSA and 125 μL were added to each well. After 45 minutes, the plates were washed and incubated with […] substrate in 100 mM/L citrate buffer, pH 5.0. The plate was read with a microtiter plate reader at a wavelength of 450 nm and when the maximum-binding control wells reached an absorbance of about 1.0, the final A450 were recorded for analysis. The data were analyzed using a macro written for use with the EXCELJ spreadsheet program. The mean, standard deviation, and %CV were determined for duplicate concentrations. The mean A450 values were normalized to the mean of four maximum-binding controls (no competitor added)(B-MAX). The normalized values were subjected to a four parameter curve fit algorithm, [Robard et al., Int.

IC50 [1] | HT-29 β-6 Selectivity* (β6/β3) [2] | SPRA AIIbB3 Selectivity* IIbIIIa/β3 [3] | Structure (SMILES)
< 10 µM | +++ (Selectivity Ratio >100 +++) | +++ (Selectivity Ratio >100 +++) | CC(C)(CC(=O)O)Cc1nc(CCCc2ccc3c(n2)NCCC3)no1.O=C(O)C(F)(F)F [Example 12, 3,3-dimethyl-4-{3-[3-(5,6,7,8-tetrahydro-1,8-naphthyridin-2-yl)propyl]-1,2,4-oxadiazol-5-yl}butanoic acid]
< 10 µM | ++ (Selectivity Ratio of 10-100 ++) | ++ (Selectivity Ratio of 10-100 ++) | CCC(CC)(CC(=O)O)Cc1nc(CCCc2ccc3c(n2)NCCC3)no1 [Example 45, 3-Ethyl-3-{3-[3-(5,6,7,8-tetrahydro-[1,8]naphthyridin-2-yl)-propyl]-[1,2,4]oxadiazol-5-ylmethyl}-pentanoic acid]
< 10 µM | +++ (Selectivity Ratio >100 +++) | +++ (Selectivity Ratio >100 +++) | O=C(O)CCCc1nc(CCCc2ccc3c(n2)NCCC3)no1 [Example 50, 4-{3-[3-(5,6,7,8-Tetrahydro-[1,8]naphthyridin-2-yl)-propyl]-[1,2,4]oxadiazol-5-yl}-butyric acid]
< 10 µM | +++ (Selectivity Ratio >100 +++) | +++ (Selectivity Ratio >100 +++) | CC(C)C(C)(CC(=O)O)Cc1nc(CCCc2ccc3c(n2)NCCC3)no1 (stereo not drawn) [Example 46, 3,4-Dimethyl-3-{3-[3-(5,6,7,8-tetrahydro-[1,8]naphthyridin-2-yl)-propyl]-[1,2,4]oxadiazol-5-ylmethyl}-pentanoic acid]
< 10 µM | +++ (Selectivity Ratio >100 +++) | +++ (Selectivity Ratio >100 +++) | CC(CC(=O)O)Cc1nc(CCCc2ccc3c(n2)NCCC3)no1 (stereo not drawn) [Example 70, 3-methyl-4-{3-[3-(5,6,7,8-tetrahydro-1,8-naphthyridin-2-yl)propyl]-1,2,4-oxadiazol-5-yl}butanoic acid]

The remaining lines, values behind:

Structure (SMILES) | IC50 [1] | HT-29 β-6 Selectivity* (β6/β3) [2] | SPRA AIIbB3 Selectivity* IIbIIIa/β3 [3]
O=C(O)CC(Cc1nc(CCCCNc2ccccn2)no1)c1ccccc1 (stereo not drawn) [Example 35, 3-phenyl-4-{3-[4-(pyridin-2-ylamino)butyl]-1,2,4-oxadiazol-5-yl}butanoic acid] | < 10 µM | +++ (Selectivity Ratio >100 +++) | ++ (Selectivity Ratio of 10-100 ++)
CC(CC(=O)O)(Cc1nc(CCCCNc2ccccn2)no1)c1ccccc1 (stereo not drawn) [Example 42, 3-methyl-3-phenyl-4-{3-[4-(pyridin-2-ylamino)butyl]-1,2,4-oxadiazol-5-yl}-butanoic acid] | < 10 µM | +++ (Selectivity Ratio >100 +++) | +++ (Selectivity Ratio >100 +++)
COc1ccc(C(CC(=O)O)Cc2nc(CCCc3ccc4c(n3)NCCC4)no2)cc1.O=C(O)C(F)(F)F (stereo not drawn) [Example 22, 3-(4-methoxyphenyl)-4-{3-[3-(5,6,7,8-tetrahydro-1,8-naphthyridin-2-yl)propyl]-1,2,4-oxadiazol-5-yl}butanoic acid] | < 10 µM | +++ (Selectivity Ratio >100 +++) | +++ (Selectivity Ratio >100 +++)
CCC(CC)(CC(=O)O)Cc1nc(CCCCNc2ccccn2)no1 [Example 40, 3-ethyl-3-({3-[4-(pyridin-2-ylamino)butyl]-1,2,4-oxadiazol-5-yl}methyl)-pentanoic acid] | < 10 µM | ++ (Selectivity Ratio of 10-100 ++) | +++ (Selectivity Ratio >100 +++)
O=C(O)CCCc1nc(CCCCNc2ccccn2)no1 [Example 41, 4-{3-[4-(pyridin-2-ylamino)butyl]-1,2,4-oxadiazol-5-yl}butanoic acid] | < 10 µM | +++ (Selectivity Ratio >100 +++) | ++ (Selectivity Ratio of 10-100 ++)
O=C(O)C(F)(F)F.O=C(O)CC(Cc1nc(CCCc2ccc3c(n2)NCCC3)no1)c1cnc2ccccc2c1 (stereo not drawn) [Example 18, 3-quinolin-3-yl-4-{3-[3-(5,6,7,8-tetrahydro-1,8-naphthyridin-2-yl)propyl]-1,2,4-oxadiazol-5-yl}butanoic acid] | < 10 µM | +++ (Selectivity Ratio >100 +++) | +++ (Selectivity Ratio >100 +++)
O=C(O)C(F)(F)F.O=C(O)CC(Cc1nc(CCCc2ccc3c(n2)NCCC3)no1)c1ccc(F)cc1 (stereo not drawn) [Example 26, 3-(4-fluorophenyl)-4-{3-[3-(5,6,7,8-tetrahydro-1,8-naphthyridin-2-yl)propyl]-1,2,4-oxadiazol-5-yl}butanoic acid trifluoroacetate] | < 10 µM | +++ (Selectivity Ratio >100 +++) | +++ (Selectivity Ratio >100 +++)
COc1cccc(C(CC(=O)O)Cc2nc(CCCc3ccc4c(n3)NCCC4)no2)c1.O=C(O)C(F)(F)F (stereo not drawn) [Example 20, 3-(3-methoxyphenyl)-4-{3-[3-(5,6,7,8-tetrahydro-1,8-naphthyridin-2-yl)propyl]-1,2,4-oxadiazol-5-yl}butanoic acid] | < 10 µM | +++ (Selectivity Ratio >100 +++) | +++ (Selectivity Ratio >100 +++)
O=C(O)C(F)(F)F.O=C(O)CC(Cc1nc(CCCCNc2ccccn2)no1)c1ccc(F)cc1 (stereo not drawn) [Example 27, 3-(4-fluorophenyl)-4-{3-[4-(pyridin-2-ylamino)butyl]-1,2,4-oxadiazol-5-yl}butanoic acid] | < 10 µM | +++ (Selectivity Ratio >100 +++) | +++ (Selectivity Ratio >100 +++)
